Assays:
[1] = test system: Beet Armyworm (Spodoptera exigua) ("BAW"); assay: Bioassay on beet armyworm (BAW), 128-well diet tray assay; format: in vivo; conditions: for mortality at 50 µg/cm2: 168 h, 50 μg/cm^2 on artificial diet, second instar BAW larvae, 25° C., five to seven days, average of eight wells, read-out: BAW % Control (or Mortality) rating; for pest or weed control at 50 µg/cm2: Table ABC (PC), activity rating class, read-out: BAW (Biological Results, Insect species)
Procedure, shortened: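 Percent mortality, averaged across eight wells, was read after five to seven days at 25° C. under 14:10 light-dark. Each well held one to five second-instar larvae on artificial diet that had been treated with 50 μg/cm^2 compound in 90:10 acetone-water and dried.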

[2] = test system: Cabbage Looper (Trichoplusia ni) ("CL"); assay: Bioassay on cabbage looper (CL), 128-well diet tray assay; format: in vivo; conditions: for mortality at 50 µg/cm2: 168 h, 50 μg/cm^2 on artificial diet, second instar CL larvae, 25° C., five to seven days, average of eight wells, read-out: CL % Control (or Mortality) rating; for pest or weed control at 50 µg/cm2: Table ABC (PC), activity rating class, read-out: CL (Biological Results, Insect species)
Procedure, shortened: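 Percent mortality, averaged across eight replicate wells, was read after five to seven days at 25 °C under a 14:10 photoperiod. Each well held one to five second-instar T. ni on diet carrying a dried 50 μg/cm^2 dose applied in acetone-water 90:10.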

Structure (SMILES) | mortality at 50 µg/cm2 [1] | mortality at 50 µg/cm2 [2] | pest or weed control at 50 µg/cm2 [1] | pest or weed control at 50 µg/cm2 [2]
CC(C)c1cc(F)ccc1N1C(=O)CS/C1=N\C(=O)NCCCc1cccc(-c2ncn(-c3ccc(OC(F)(F)F)cc3)n2)c1 [P129, (Z)-1-(3-(4-fluoro-2-isopropylphenyl)-4-oxothiazolidin-2-ylidene)-3-(3-(3-(1-(4-(trifluoromethoxy)phenyl)-1H-1,2,4-triazol-3-yl)phenyl)propyl)urea] | 50 to 100% | 50 to 100% |  | 
COc1ccc(N2C(=O)CS/C2=N\C(=O)NCCCc2cccc(-c3ncn(-c4ccc(OC(F)(F)F)cc4)n3)c2)c(C)c1 [P131, (Z)-1-(3-(4-methoxy-2-methylphenyl)-4-oxothiazolidin-2-ylidene)-3-(3-(3-(1-(4-(trifluoromethoxy)phenyl)-1H-1,2,4-triazol-3-yl)phenyl)propyl)urea] | 50 to 100% | 50 to 100% |  | 
Cc1ccccc1N1C(=O)CS/C1=N\C(=O)NCCCCc1cccc(-c2ncn(-c3ccc(OC(F)(F)F)cc3)n2)c1 [P170, (Z)-1-(4-oxo-3-(o-tolyl)thiazolidin-2-ylidene)-3-(4-(3-(1-(4-(trifluoromethoxy)phenyl)-1H-1,2,4-triazol-3-yl)phenyl)butyl)urea] | 0% | 50 to 100% |  | 
CCc1ccccc1N1C(=O)CS/C1=N\C(=O)NCCCCc1cccc(-c2ncn(-c3ccc(OC(F)(F)F)cc3)n2)c1 [P171, (Z)-1-(3-(2-ethylphenyl)-4-oxothiazolidin-2-ylidene)-3-(4-(3-(1-(4-(trifluoromethoxy)phenyl)-1H-1,2,4-triazol-3-yl)phenyl)butyl)urea] | 50 to 100% | 50 to 100% |  | 
CC(C)c1ccccc1N1C(=O)CS/C1=N\C(=O)NCCCCc1cccc(-c2ncn(-c3ccc(OC(F)(F)F)cc3)n2)c1 [P172, (Z)-1-(3-(2-isopropylphenyl)-4-oxothiazolidin-2-ylidene)-3-(4-(3-(1-(4-(trifluoromethoxy)phenyl)-1H-1,2,4-triazol-3-yl)phenyl)butyl)urea] | 50 to 100% | 50 to 100% |  | 
Cc1ccc(C(C)C)c(N2C(=O)CS/C2=N\C(=O)NCCCCc2cccc(-c3ncn(-c4ccc(OC(F)(F)F)cc4)n3)c2)c1 [P176, (Z)-1-(3-(2-isopropyl-5-methylphenyl)-4-oxothiazolidin-2-ylidene)-3-(4-(3-(1-(4-(trifluoromethoxy)phenyl)-1H-1,2,4-triazol-3-yl)phenyl)butyl)urea] | 50 to 100% | 50 to 100% |  | 
CCc1cccc(C)c1N1C(=O)CS/C1=N\C(=O)NCCCCc1cccc(-c2ncn(-c3ccc(OC(F)(F)F)cc3)n2)c1 [P179, (Z)-1-(3-(2-ethyl-6-methylphenyl)-4-oxothiazolidin-2-ylidene)-3-(4-(3-(1-(4-(trifluoromethoxy)phenyl)-1H-1,2,4-triazol-3-yl)phenyl)butyl)urea] | 0% | 0% |  | 
Cc1ccc(N2C(=O)CS/C2=N\C(=O)NCCCCc2cccc(-c3ncn(-c4ccc(OC(F)(F)F)cc4)n3)c2)c(C(C)C)c1 [P180, (Z)-1-(3-(2-isopropyl-4-methylphenyl)-4-oxothiazolidin-2-ylidene)-3-(4-(3-(1-(4-(trifluoromethoxy)phenyl)-1H-1,2,4-triazol-3-yl)phenyl)butyl)urea] | 0% | 50 to 100% |  | 
CC(C)c1cc(F)ccc1N1C(=O)CS/C1=N\C(=O)NCCCCc1cccc(-c2ncn(-c3ccc(OC(F)(F)F)cc3)n2)c1 [P181] | 50 to 100% | 50 to 100% |  | 
COc1ccc(C(C)C)c(N2C(=O)CS/C2=N\C(=O)NCCCCc2cccc(-c3ncn(-c4ccc(OC(F)(F)F)cc4)n3)c2)c1 [P182, (Z)-1-(3-(2-isopropyl-5-methoxyphenyl)-4-oxothiazolidin-2-ylidene)-3-(4-(3-(1-(4-(trifluoromethoxy)phenyl)-1H-1,2,4-triazol-3-yl)phenyl)butyl)urea] | 50 to 100% | 50 to 100% |  | 
CCC(CNC(=O)/N=C1\SCC(=O)N1c1cc(C)ccc1C(C)C)c1ccc(-c2ncn(-c3ccc(OC(F)(F)F)cc3)n2)cc1 (centres unmarked) [P364, (Z)-1-(3-(2-isopropyl-5-methylphenyl)-4-oxothiazolidin-2-ylidene)-3-(2-(4-(1-(4-(trifluoromethoxy)phenyl)-1H-1,2,4-triazol-3-yl)phenyl)butyl)urea] | 50 to 100% | 50 to 100% |  | 
Cc1ccccc1NC(=S)NC(=O)NCc1ccc(-c2ncn(-c3ccc(OC(F)(F)F)cc3)n2)cc1 [PC1, 1-(o-tolylcarbamothioyl)-3-[[4-[1-[4-(trifluoromethoxy)phenyl]-1H-1,2,4-triazol-3-yl]phenyl]methyl]urea] |  |  | 50 to 100% | 50 to 100%
CC(C)c1cc(F)ccc1NC(=S)NC(=O)NCc1ccc(-c2ncn(-c3ccc(OC(F)(F)F)cc3)n2)cc1 [PC3, 1-[(4-fluoro-2-isopropyl-phenyl)carbamothioyl]-3-[[4-[1-[4-(trifluoromethoxy)phenyl]-1H-1,2,4-triazol-3-yl]phenyl]methyl]urea] |  |  | 50 to 100% | 50 to 100%
Cc1ccc(NC(=S)NC(=O)NCc2ccc(-c3ncn(-c4ccc(OC(F)(F)F)cc4)n3)cc2)c(C(C)C)c1 [PC5, 1-[(2-isopropyl-4-methyl-phenyl)carbamothioyl]-3-[[4-[1-[4-(trifluoromethoxy)phenyl]-1H-1,2,4-triazol-3-yl]phenyl]methyl]urea] |  |  | 50 to 100% | 50 to 100%
CCc1ccc(C)cc1NC(=S)NC(=O)NCc1ccc(-c2ncn(-c3ccc(OC(F)(F)F)cc3)n2)cc1 [PC7] |  |  | 50 to 100% | 50 to 100%
CCCc1ccc(C)cc1NC(=S)NC(=O)NCc1ccc(-c2ncn(-c3ccc(OC(F)(F)F)cc3)n2)cc1 [PC8, 1-[(5-methyl-2-propyl-phenyl)carbamothioyl]-3-[[4-[1-[4-(trifluoromethoxy)phenyl]-1H-1,2,4-triazol-3-yl]phenyl]methyl]urea] |  |  | 50 to 100% | 50 to 100%
Cc1ccc(NC(=S)NC(=O)NCc2ccc(-c3ncn(-c4ccc(C(F)(F)F)cc4)n3)cc2)c(C(C)C)c1 [PC15, 1-[(2-isopropyl-4-methyl-phenyl)carbamothioyl]-3-[[4-[1-[4-(trifluoromethyl)phenyl]-1,2,4-triazol-3-yl]phenyl]methyl]urea] |  |  | 50 to 100% | 50 to 100%
Cc1ccccc1NC(=S)NC(=O)NCCc1cccc(-c2ncn(-c3ccc(OC(F)(F)F)cc3)n2)c1 [PC74, 1-(o-tolylcarbamothioyl)-3-[2-[3-[1-[4-(trifluoromethoxy)phenyl]-1H-1,2,4-triazol-3-yl]phenyl]ethyl]urea] |  |  | 50 to 100% | 50 to 100%
CCc1cccc(C)c1NC(=S)NC(=O)NCCc1cccc(-c2ncn(-c3ccc(OC(F)(F)F)cc3)n2)c1 [PC83, 1-[(2-ethyl-6-methyl-phenyl)carbamothioyl]-3-[2-[3-[1-[4-(trifluoromethoxy)phenyl]-1H-1,2,4-triazol-3-yl]phenyl]ethyl]urea] |  |  | 50 to 100% | 50 to 100%
Cc1ccccc1NC(=S)NC(=O)NCCCc1ccc(-c2ncn(-c3ccc(OC(F)(F)F)cc3)n2)cc1 [PC92, 1-(o-tolylcarbamothioyl)-3-[3-[4-[1-[4-(trifluoromethoxy)phenyl]-1H-1,2,4-triazol-3-yl]phenyl]propyl]urea] |  |  | 50 to 100% | 50 to 100%
CCc1ccccc1NC(=S)NC(=O)NCCCc1ccc(-c2ncn(-c3ccc(OC(F)(F)F)cc3)n2)cc1 [PC93, 1-[(2-ethylphenyl)carbamothioyl]-3-[3-[4-[1-[4-(trifluoromethoxy)phenyl]-1H-1,2,4-triazol-3-yl]phenyl]propyl]urea] |  |  | 50 to 100% | 50 to 100%
CC(C)c1ccccc1NC(=S)NC(=O)NCCCc1ccc(-c2ncn(-c3ccc(OC(F)(F)F)cc3)n2)cc1 [PC94, 1-[(2-isopropylphenyl)carbamothioyl]-3-[3-[4-[1-[4-(trifluoromethoxy)phenyl]-1H-1,2,4-triazol-3-yl]phenyl]propyl]urea] |  |  | 50 to 100% | 50 to 100%
CCc1cccc(C)c1NC(=S)NC(=O)NCCCc1ccc(-c2ncn(-c3ccc(OC(F)(F)F)cc3)n2)cc1 [PC101, 1-[(2-ethyl-6-methyl-phenyl)carbamothioyl]-3-[3-[4-[1-[4-(trifluoromethoxy)phenyl]-1H-1,2,4-triazol-3-yl]phenyl]propyl]urea] |  |  | 50 to 100% | 50 to 100%
CCc1ccccc1NC(=S)NC(=O)NCCCc1cccc(-c2ncn(-c3ccc(OC(F)(F)F)cc3)n2)c1 [PC119, 1-[(2-ethylphenyl)carbamothioyl]-3-[3-[3-[1-[4-(trifluoromethoxy)phenyl]-1H-1,2,4-triazol-3-yl]phenyl]propyl]urea] |  |  | 50 to 100% | 50 to 100%
CC(C)c1ccccc1NC(=S)NC(=O)NCCCc1cccc(-c2ncn(-c3ccc(OC(F)(F)F)cc3)n2)c1 [PC120, 1-[(2-isopropylphenyl)carbamothioyl]-3-[3-[3-[1-[4-(trifluoromethoxy)phenyl]-1H-1,2,4-triazol-3-yl]phenyl]propyl]urea] |  |  | 50 to 100% | 50 to 100%
